Source: ChEMBL document CHEMBL5584292, “Targeted Isolation of Antiviral Labdane Diterpenes from the Bark of Neo-uvaria foetida (Annonaceae) using LC-MS/MS-Based Molecular Networking” (J Nat Prod, 2024)
The source made the active and inactive calls. The rule behind the calls is not given here.

What was measured:
[1] = Cytotoxicity against human Huh-7 cells assessed as reduction in cell viability incubated for 48 hrs by MTS assay; format: toxicity, cell-based
[2] = test system: Human coronavirus 229E; assay: Antiviral activity against Human coronavirus 229E expressing luciferase reporter gene infected in Huh-7 cells assessed as reduction in viral replication incubated for 24 hrs by renilla luciferase based luminometer assay; format: functional, organism-based; conditions: for IC50: Huh-7, 24 h
[3] = Selectivity index, ratio of CC50 for cytotoxicity against human Huh-7 cells to IC50 for antiviral activity against Human coronavirus 229E expressing luciferase reporter gene infected in Huh-7 cells; format: toxicity, cell-based; conditions: read-out: Ratio CC50/IC50
[4] = Cytotoxicity against African green monkey Vero E6 cells assessed as reduction in cell viability incubated for 48 hrs by MTS assay; format: toxicity, cell-based, Vero C1008; conditions: chlorocebus sabaeus
[5] = test system: SARS-CoV-2; assay: Antiviral activity against SARS-CoV-2 infected in African green monkey Vero E6 cells assessed as reduction in viral replication incubated for 48 hrs by Alexa Fluor 488 staining based flow cytometric analysis; format: functional, organism-based, Severe acute respiratory syndrome coronavirus 2
[6] = Selectivity index, ratio of CC50 for cytotoxicity against African green monkey Vero E6 cells to IC50 for antiviral activity against SARS-CoV-2 infected in African green monkey Vero E6 cells; format: toxicity, cell-based; conditions: read-out: Ratio CC50/IC50
[7] = test system: Zika virus; assay: Antiviral activity against ZIKV expressing GFP infected in African green monkey Vero E6 cells assessed as reduction in viral replication incubated for 24 hrs by flow cytometric analysis; format: functional, organism-based
[8] = Selectivity index, ratio of CC50 for cytotoxicity against African green monkey Vero E6 cells to IC50 for antiviral activity against ZIKV expressing GFP infected in African green monkey Vero E6 cells; format: toxicity, cell-based; conditions: read-out: Ratio CC50/IC50
[9] = test system: Huh-7; assay: Cytotoxicity against human Huh-7 cells assessed as reduction in cell viability at 3 to 400 uM incubated for 48 hrs by MTS assay; format: toxicity, cell-based; conditions: huh-7, 48 h, dose 3-400 µM
[10] = test system: Zika virus; assay: Antiviral activity against ZIKV expressing GFP infected in African green monkey Vero E6 cells assessed as reduction in viral replication preincubated for 2 hrs followed by dilution to sub-therapeutic level and measured after 24 hrs by flow cytometric analysis; format: functional, organism-based; conditions: time 26.0 hrs
[11] = test system: Zika virus; assay: Antiviral activity against ZIKV expressing GFP infected in African green monkey Vero E6 cells assessed as reduction in viral replication preincubated for 2 hrs followed by compound wash out and measured after 22 hrs by flow cytometric analysis; format: functional, organism-based; conditions: time 24.0 hrs
[12] = test system: Zika virus; assay: Antiviral activity against ZIKV expressing GFP infected in African green monkey Vero E6 cells assessed as reduction in viral replication preincubated for 2 hrs without compound followed by compound addition and measured after 22 hrs by flow cytometric analysis; format: functional, organism-based
[13] = Cytotoxicity against human Huh-7 cells assessed as maximum non-toxic concentration at incubated for 48 hrs by MTS assay; format: toxicity, cell-based; conditions: read-out: MNTD>90
[14] = test system: Human coronavirus 229E; assay: Antiviral activity against Human coronavirus 229E expressing luciferase reporter gene infected in Huh-7 cells assessed as reduction in viral replication at 6 uM incubated for 24 hrs by renilla luciferase based luminometer assay relative to control; format: functional; design: scale not given: the % may be the effect or the level left
[15] = test system: Zika virus; assay: Antiviral activity against ZIKV expressing GFP infected in African green monkey Vero E6 cells assessed as reduction in viral replication at 20 uM incubated for 24 hrs by flow cytometric analysis relative to control; format: functional; design: scale not given: the % may be the effect or the level left
[16] = Severe acute respiratory syndrome coronavirus 2, Vero C1008, 48 h, read-out: IC50
[17] = Zika virus, Vero C1008, 24 h, read-out: IC50

| Structure (SMILES) | CC50 at 48 h [1] | IC50 [2] | selectivity ratio [3] | CC50 at 48 h [4] | IC50 [5, 16] | selectivity ratio [6] | IC50 [7, 17] | selectivity ratio [8] | Activity [9] | Activity [10] | Activity [11] | Activity [12] | IC50 ([5]; vero e6) | IC50 ([7]; vero e6) | MNTC at 48 h [13] | Activity [2] | Activity [14] | Activity [15] |
| --- | --- | --- | --- | --- | --- | --- | --- | --- | --- | --- | --- | --- | --- | --- | --- | --- | --- | --- |
| CCC(CC)COC(=O)[C@H](C)N[P@](=O)(OC[C@H]1O[C@@](C#N)(c2ccc3c(N)ncnn23)[C@H](O)[C@@H]1O)Oc1ccccc1 [REMDESIVIR] | 90 µM | 0.04 µM | 2250 | > 100 µM | 25 µM | 4 | – | – | – | – | – | – | – | – | – | – | – | – |
| CC1(C)CCC[C@@]2(C)[C@H]1CC[C@]1(CO)O[C@H](C3=CC(=O)OC3O)C[C@@H]12 (stereo not given in full) | 172 µM | 25.3 µM | 6.8 | 200 µM | 6.3 µM | 3.2 | 76 µM | 2.6 | Toxic | inactive | Active | Active | – | – | – | – | – | – |
| CC1(C)CCC[C@@]2(C)[C@H]1CC[C@]13COC4(CC(=O)O[C@H]4O)[C@H](C[C@@H]12)O3 (stereo not given in full) | 435 µM | > 100 µM | – | > 200 µM | – | – | – | – | Non-Toxic | – | – | – | Not Active | Not Active | – | – | – | – |
| CC1(C)CCC[C@@]2(C)[C@H]1CC[C@@]1(CO)O[C@H](C3=CC(=O)OC3O)C[C@@H]12 (stereo not given in full) | 46.9 µM | 15.8 µM | 3 | 88.3 µM | – | – | 31.9 µM | 2.8 | Toxic | inactive | Active | Active | Not Active | – | 6 µM | – | – | – |
| CC1(C)CCC[C@@]2(C)[C@H]1CC[C@]1(O)COC(O)([C@@H](O)CC(=O)O)C[C@@H]12 (stereo not given in full) | 223 µM | > 100 µM | – | > 200 µM | – | – | – | – | Toxic | – | – | – | Not Active | Not Active | – | – | – | – |
| CC(=O)OC[C@@]12CC[C@H]3C(C)(C)CCC[C@]3(C)[C@H]1C[C@@H](C1=CC(=O)OC1O)O2 (stereo not given in full) | 14 µM | 2.3 µM | 6.2 | 55.9 µM | – | – | 14.9 µM | 3.8 | Toxic | inactive | Active | Active | Not Active | – | 30 µM | Dose-Dependent Effect | 80% | >90% |
| CC1(C)CCC[C@@]2(C)[C@H]1CC[C@]13CO[C@@H]4OC(=O)C=C4[C@H](C[C@@H]12)O3 | 215 µM | 58.8 µM | 3.7 | > 200 µM | 93.5 µM | 2.1 | – | – | Toxic | – | – | – | – | Not Active | – | – | – | – |
